In the NIST ThermoML archive (doi:10.1016/j.jct.2006.04.005):

Assay: xn = mol fraction of the nth substance listed
Settings: 303.15 K, 101 kPa, Liquid; for viscosity: Capillary tube (Ostwald / Ubbelohde) method; for excess molar volume: Direct dilatometry; for mass density: Pycnometric method

Cc1ccccc1[N+](=O)[O-] [2-nitrotoluene] + C[S+](C)[O-]
Settings | excess molar volume [m3/mol] | mass density [kg/m3] | speed of sound [m/s] | viscosity [mPa·s]
x2 = 0 | – | 1153.24 | – | 1.911
x2 = 0.0815 | 2.3e-08 | – | 2039 | 1.903
x2 = 0.1525 | 5.4e-08 | – | 1986 | 1.896
x2 = 0.2422 | 9.3e-08 | – | 1922 | 1.888
x2 = 0.2913 | 1.13e-07 | – | 1888 | 1.883
x2 = 0.3415 | 1.28e-07 | – | 1849 | 1.878
x2 = 0.4026 | 1.45e-07 | – | 1807 | 1.872
x2 = 0.4505 | 1.55e-07 | – | 1773 | 1.867
x2 = 0.5119 | 1.58e-07 | – | 1731 | 1.861
x2 = 0.5523 | 1.59e-07 | – | 1704 | 1.857
x2 = 0.602 | 1.54e-07 | – | 1674 | 1.852
x2 = 0.6521 | 1.43e-07 | – | 1645 | 1.847
x2 = 0.7122 | 1.25e-07 | – | 1612 | 1.841
x2 = 0.7516 | 1.13e-07 | – | 1591 | 1.836
x2 = 0.8115 | 8.5e-08 | – | 1564 | 1.829
x2 = 0.9227 | 3.5e-08 | – | 1508 | 1.814

Cc1cccc([N+](=O)[O-])c1 [3-nitrotoluene] + C[S+](C)[O-]
Settings | excess molar volume [m3/mol] | mass density [kg/m3] | speed of sound [m/s] | viscosity [mPa·s]
x2 = 0 | – | 1147.67 | – | 1.777
x2 = 0.1052 | 3.9e-08 | – | 2002 | 1.78
x2 = 0.1512 | 6e-08 | – | 1964 | 1.781
x2 = 0.1921 | 7.9e-08 | – | 1936 | 1.782
x2 = 0.2216 | 9.2e-08 | – | 1909 | 1.783
x2 = 0.272 | 1.14e-07 | – | 1876 | 1.784
x2 = 0.305 | 1.28e-07 | – | 1851 | 1.785
x2 = 0.3641 | 1.52e-07 | – | 1812 | 1.786
x2 = 0.4121 | 1.62e-07 | – | 1778 | 1.787
x2 = 0.4772 | 1.77e-07 | – | – | 1.789
x2 = 0.5226 | 1.83e-07 | – | 1711 | 1.79
x2 = 0.6035 | 1.75e-07 | – | 1661 | 1.792
x2 = 0.724 | 1.46e-07 | – | 1598 | 1.794
x2 = 0.8126 | 1.07e-07 | – | 1555 | 1.796
x2 = 0.8905 | 6.2e-08 | – | 1518 | 1.799
x2 = 0.9607 | 2.5e-08 | – | 1489 | 1.801

C[S+](C)[O-] [dimethyl sulfoxide] + Cc1ccccc1Cl
x1 = 1
Settings | mass density [kg/m3] | speed of sound [m/s]
– | 1091.35 | 1470

C[S+](C)[O-] [dimethyl sulfoxide] + Clc1cccc(Cl)c1
x1 = 1
Settings | mass density [kg/m3] | speed of sound [m/s]
– | 1091.35 | 1470

C[S+](C)[O-] [dimethyl sulfoxide] + Cc1ccc(Cl)cc1
x1 = 1
Settings | mass density [kg/m3] | speed of sound [m/s] | viscosity [mPa·s]
– | 1091.35 | 1470 | 1.803

C[S+](C)[O-] [dimethyl sulfoxide] + Clc1ccc(Cl)c(Cl)c1
x1 = 1
Settings | mass density [kg/m3] | speed of sound [m/s]
– | 1091.35 | 1470

Clc1ccccc1Cl [1,2-dichlorobenzene] + C[S+](C)[O-]
Settings | excess molar volume [m3/mol] | mass density [kg/m3] | speed of sound [m/s] | viscosity [mPa·s]
x2 = 0 | – | 1299.24 | 1261 | 1.302
x2 = 0.104 | 2.3e-08 | – | 1264 | 1.379
x2 = 0.1511 | 3.3e-08 | – | 1268 | 1.409
x2 = 0.2041 | 4e-08 | – | 1274 | 1.443
x2 = 0.2506 | 4.7e-08 | – | 1279 | 1.472
x2 = 0.301 | 5.3e-08 | – | 1284 | 1.502
x2 = 0.4025 | 6e-08 | – | 1303 | 1.56
x2 = 0.4511 | 6.3e-08 | – | 1312 | 1.587
x2 = 0.521 | 6.5e-08 | – | 1329 | 1.623
x2 = 0.6511 | 5.8e-08 | – | 1367 | 1.686
x2 = 0.7221 | 5.3e-08 | – | 1394 | 1.719
x2 = 0.7519 | 4.9e-08 | – | 1403 | 1.73
x2 = 0.8002 | 4e-08 | – | 1417 | 1.751
x2 = 0.8514 | 3.5e-08 | – | 1435 | 1.766
x2 = 0.9019 | 2.3e-08 | – | 1446 | 1.782
x2 = 0.9405 | 1.3e-08 | – | 1457 | 1.782
